Reference: PubChem BioAssay (NCI)
Where “and” joins values, the source holds several entries; their conditions need not be identical. Identical values can stand only once.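 Step 1: Grow cells in 96-well plates. Step 2: Expose to compound for 48 hours at 5 concentrations. Step 3: Interpolate endpoints linearly; if unreached, use highest concentration. At the GI50, growth is halved. TGI: concentration producing complete growth inhibition.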

Assays:
Test in all cases: NCI anticancer screen, dose series, 48 h
[1] = test system: SK-MEL-2 melanoma
[2] = test system: OVCAR-5 ovarian
[3] = test system: NCI-H522 lung
[4] = test system: EKVX NSCLC
[5] = test system: HCC-2998 colon
[6] = test system: HCT-15 colon
[7] = test system: SF-295 CNS
[8] = test system: UACC-257 melanoma
[9] = test system: MALME-3M melanoma
[10] = test system: K-562 leukemia

SMILES	TGI [1]	TGI [2]	TGI [3]	TGI [4]	TGI [5] [µM]	TGI [6]	TGI [7]	TGI [8]	TGI [9]	TGI [10]	GI50 [1] [µM]	GI50 [2] [µM]	GI50 [3] [µM]	GI50 [4] [µM]	GI50 [5] [µM]	GI50 [6] [µM]	GI50 [7] [µM]	GI50 [8] [µM]	GI50 [9] [µM]	GI50 [10] [µM]
COc1ccccc1NC(=O)CC(=O)n1nc(C)c(N=Nc2ccccc2C(=O)O)c1C	> 100 µM	> 100 µM	> 100 µM	83.5 µM	> 100	> 100 µM	> 100 µM	> 100 µM	> 100 µM	> 100 µM	–	–	–	–	–	–	–	–	–	–
COc1ccc(-c2cc(-c3ccc(Nc4nc(Nc5ccccc5)nc(Nc5ccc(Cl)cc5)n4)cc3)nc(N)c2C#N)cc1	2.66 µM	2.86 µM	3.38 µM	> 22.9 µM	4.41	3.68 µM	7.28 µM	3.15 µM	1.8 µM	> 18.6 µM	1.09	1.13	1.16	1.44	1.41	1.2	1.54	1.25	0.801	1.52
CSc1ccccc1C#C/C=C\C#Cc1ccccc1N1CCCC1=O	> 50 µM	> 50 µM	> 50 µM	> 50 µM	> 33.8	> 50 µM	> 50 µM	> 50 µM	> 50 µM	> 12.2 µM	–	> 24.2	–	> 10.3	–	–	> 50	> 12.5	–	–
O=C(CN1CCN(c2cc3c(cc2F)c(=O)c(C(=O)N/N=C/c2ccccc2O)cn3C2CC2)CC1)N/N=C\c1ccccc1O	> 100 µM	> 100 µM	> 100 µM	> 100 µM	> 100	> 100 µM	> 100 µM	> 100 µM	> 63.4 µM	> 100 µM	1.66	1.62	0.405	1.11	0.615	0.33	0.931	0.912	0.627	0.389
Cc1cc(=O)[nH]c2cc3oc4ccccc4c3cc12	> 100 µM	> 100 µM	> 100 µM	> 100 µM	16.3	> 100 µM	> 100 µM	> 100 µM	> 100 µM	> 100 µM	–	–	–	–	–	–	–	–	–	–
Cc1cc(=O)n2[nH]c(-c3ccc(C(C)(C)C)cc3)cc2n1	65.5 µM	> 100 µM	43 µM	59.1 µM	> 100	> 100 µM	22.7 µM	49.6 µM	29 µM	> 100 µM	10.5	17.7	3.42	3.88	8.59	5.79	2.47	4.32	2.76	6.72
O=C(NCCNc1nccc(-c2c(-c3cccc(O)c3)nc3sccn23)n1)c1ccccc1O	6.09 µM	65.3 µM	16.9 µM	50.9 µM	22.5	> 46.8 µM	26.6 µM	11.2 µM	18.7 µM	> 100 µM	1.59	13.3	4.24	11.8	5.67	4.53	4.18	0.473	0.152	4.11
O=C(/C=C/c1ccccc1Cl)c1ccc(Cl)c(Cl)c1	36.9 µM	32.8 µM	31.1 µM	37.4 µM	28.8	32.2 µM	31.3 µM	40.2 µM	55.7 µM	67.9 µM	–	–	–	–	–	–	–	–	–	–
C=C(CNCCO)[C@@H]1CC[C@]2(CO)CC[C@]3(C)[C@H](CC[C@@H]4[C@@]5(C)CCC(N)C(C)(C)[C@@H]5CC[C@]43C)[C@@H]12 (stereo partly specified)	3.65 µM	18.1 µM	3.7 µM	18.1 µM	3.81	19 µM	3.52 µM	3.23 µM	3.11 µM	3.33 µM	1.98	5.08	1.93	4.59	1.98	5.57	1.73	1.8	1.58	1.48
COc1ccc2nc3cc(Cl)ccc3c(Sc3ccccc3[N+](=O)[O-])c2c1	> 100 µM	> 100 µM	> 100 µM	> 100 µM	> 100	> 100 µM	> 100 µM	> 100 µM	> 100 µM	> 100 µM	–	–	–	–	–	–	–	–	–	–
NS(=O)(=O)c1ccccc1C(=O)N/N=C(\c1nc2ccc([N+](=O)[O-])cc2[nH]c1=O)C(O)c1ccc([N+](=O)[O-])cc1 (stereo unspecified)	> 100 µM	> 100 µM	59.2 µM	> 100 µM	> 100	> 100 µM	> 100 µM	> 100 µM	> 100 µM	> 100 µM	–	–	–	–	–	–	–	–	–	–
CC1=C(C(=O)Nc2ccc(F)c(Cl)c2)C(c2ccc(Cl)cc2)NC(=O)N1 (stereo unspecified)	35.3 µM	42.9 µM	34.9 µM	49.9 µM	27.7	41.1 µM	> 100 µM	38.6 µM	38.5 µM	21.3 µM	19.1	19.5	17.8	18.5	14.6	19.5	32.5	19.4	16.8	0.0173
O=c1n(CC2CO2)c(=O)n(CC2CO2)n1CC1CO1 (stereo unspecified)	> 100 µM	> 100 µM	> 49.2 µM	> 100 µM	37.7	44.3 µM	> 100 µM	95.6 µM	> 100 µM	> 100 µM	> 73.5	63.1	12.8	32.7	2.17	11.1	3.65	13	64.1	51.4
O=C1/C(=C/c2ccc([N+](=O)[O-])cc2)COc2ccc(O)c(O)c21	4.37 µM	3.74 µM	0.474 µM	3.72 µM	3.38	3.55 µM	5.17 µM	4.32 µM	5.22 µM	> 100 µM	1.87	1.81	0.204	1.77	1.76	0.606	2.21	1.89	1.84	0.547
COc1cc2c(c(OC)c1O)C(=O)C(OC)C(c1ccc(O)c(O)c1)O2 (stereo unspecified)	> 100 µM	> 100 µM	–	> 100 µM	> 100	> 100 µM	4.95 µM	> 100 µM	> 100 µM	> 100 µM	1.28	2.27	0.0599	15.2	0.645	0.0776	0.471	> 100	48.3	0.048
O=C1C2=C(SCCS2)C(=O)c2ccccc21	4.07 µM	3.23 µM	3.17 µM	2.69 µM	3.11	3.08 µM	3.14 µM	3.45 µM	3.2 µM	5.14 µM	–	–	–	–	–	–	–	–	–	–
CCCCCCCCSC1=CC(=O)c2nc3ccccc3c3ccnc1c23	> 100 µM	> 100 µM	> 100 µM	> 100 µM	> 100	> 100 µM	> 100 µM	> 100 µM	> 100 µM	> 100 µM	> 100	> 100	62.8	> 100	> 100	38.4	> 100	41.1	83.3	27.4
CC(=O)OC(C)C(=O)C1c2cccc(O)c2C(=O)c2c(O)cc(C)cc21 (stereo unspecified)	1.44 µM	2.59 µM	3.02 µM	4.09 µM	1.69	1.55 µM	1.19 µM	1.4 µM	1.82 µM	9.03 µM	–	–	–	–	–	–	–	–	–	–
O=C(O)c1cc(C(=O)O)cc(N2C(=O)c3ccccc3C2=O)c1	> 100 µM	> 100 µM	> 100 µM	> 100 µM	> 100	> 100 µM	> 100 µM	> 100 µM	> 100 µM	> 100 µM	–	–	–	–	–	–	–	–	–	–
COc1cc2nc(C)nc(N[C@H](C)c3cc(N)cc(C(F)(F)F)c3)c2cc1O[C@H]1CCOC1	34.7 µM	28.5 µM	29.3 µM	26.5 µM	33.2	27.6 µM	24.8 µM	30.5 µM	33.4 µM	23.2 µM	18	13.4	12.8	11.1	17	12.6	11.6	16.1	18.2	0.489
COc1cc(/C=C/c2cc(/C=C/c3ccc(O)c(OC)c3)n(C(=O)Nc3ccc(F)cc3)n2)ccc1O	3.32 µM	45 µM	1.21 µM	43.7 µM	10.6	21.8 µM	29.7 µM	9.12 µM	7.85 µM	2.91 µM	0.515	3.99	0.25	3.05	2.53	0.566	2.63	2.17	0.743	0.371
COc1ccc(-n2/c(=N/C(=S)N(C)C)ss/c2=N\C(=S)N(C)C)cc1	> 100 µM	> 100 µM	16.6 µM	> 100 µM	> 100	> 100 µM	> 100 µM	> 100 µM	> 100 µM	> 100 µM	–	–	–	–	–	–	–	–	–	–
CCOC(=O)COc1cccc2c1C(=O)CCO2	> 100 µM	> 100 µM	> 100 µM	> 100 µM	> 100	> 100 µM	> 100 µM	> 100 µM	> 100 µM	> 100 µM	–	–	–	–	–	–	–	–	–	–
CC1(C)OC(=O)C(=Cc2ccc(O)cc2)C(=O)O1	> 100 µM	> 100 µM	> 100 µM	> 100 µM	> 100	> 100 µM	> 100 µM	> 100 µM	> 100 µM	> 100 µM	–	–	–	–	–	–	–	–	–	–
Cc1ccc(-c2nnc(-c3ccc4ccccc4c3)o2)cc1	> 32.6 µM	> 100 µM	> 100 µM	> 100 µM	> 100	> 100 µM	> 100 µM	> 100 µM	> 88.9 µM	> 51.2 µM	–	–	–	–	–	–	–	–	–	–
O=C1c2ccccc2C(=O)c2sc(Nc3cccc(Cl)c3)nc21	3.79 µM	4.78 µM	3.09 µM	4.89 µM	5.3	3.69 µM	3.09 µM	2.99 µM	2.69 µM	4.36 µM	–	–	–	–	–	–	–	–	–	–
O=C1NNC(=O)c2ccccc2SSc2ccccc2C(=O)NNC(=O)c2ccccc2SSc2ccccc21	50 µM and > 100 µM	50 µM and 73.8 µM	50 µM and 14.5 µM	50 µM and > 100 µM	> 100	50 µM and 37.1 µM	50 µM and > 100 µM	50 µM and > 100 µM	42.6 µM and > 100 µM	50 µM and > 100 µM	4.93	–	3.43	10.5	–	4.61	16.3	45.2	25.9	3.76
